The target in the assay is T1, FXR (Homo sapiens, UniProt Q96RI1).
T1 construct: 5 μL of 20 nM FXR-LBD Complete Coregulator buffer G; purchased ThermoFisher PV4833
T1 sequence (Q96RI1 262-486 limits assumed): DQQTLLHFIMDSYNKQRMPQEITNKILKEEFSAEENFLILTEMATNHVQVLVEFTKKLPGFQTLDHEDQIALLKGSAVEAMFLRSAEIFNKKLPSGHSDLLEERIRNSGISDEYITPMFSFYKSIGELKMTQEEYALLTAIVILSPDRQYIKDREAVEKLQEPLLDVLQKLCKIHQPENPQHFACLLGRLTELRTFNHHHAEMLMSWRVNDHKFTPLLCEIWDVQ
The assay is described as follows: FXR antagonist screening by TR-FRET (LanthaScreen TR-FRET FXR co-activation assay kit). The assay is classed as biochemical. The note with it: Table 1.2, FXR antagonistic activity; TR-FRET with CDCA; geometric means of at least two independent runs. The procedure, abridged: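 FXR-LBD (20 nM working solution) mixed with compound, CDCA (200 μM working solution) as agonist, Fluorescein-SRC2-2 and Tb-anti-GST antibody in Coregulator buffer G; 10 h at room temperature. Coactivator recruitment read by TR-FRET, triplicate wells.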
(In general: Time-resolved FRET reads energy transfer from a long-lived donor to a nearby acceptor.)

For `Cc1c(C(=O)O)sc2ccc(S(=O)(=O)N(CCc3ccccc3)c3ccccc3N3CCN(C(=O)c4sccc4Br)CC3)cc12` [Example F27-S158, 5-(N-(2-(4-(3-bromothiophene-2-carbonyl)piperazin-1-yl)phenyl)-N-phenethylsulfamoyl)-3-toluothiophene-2-carboxylic acid], the IC50 lay in the range of 0.1 to 10 µM. Next, `O=C(O)c1cc2cc(S(=O)(=O)N(CCc3ccccc3)c3ccccc3N3CCN(C(=O)c4sccc4Br)CC3)ccc2s1` [Example F27-S159, 5-(N-(2-(4-(3-bromothiophene-2-carbonyl)piperazin-1-yl)phenyl)-N-phenethylsulfamoyl)benzo[b]thiophene-2-carboxylic acid]: 0.1 to 10 µM. Next, `O=C(O)c1cc2ccc(S(=O)(=O)N(CCc3ccccc3)c3ccccc3N3CCN(C(=O)c4sccc4Br)CC3)cc2s1` [Example F27-S160, 6-(N-(2-(4-(3-bromothiophene-2-carbonyl)piperazin-1-yl)phenyl)-N-phenethylsulfamoyl)benzo[b]thiophene-2-carboxylic acid]: 0.1 to 10 µM. Next, `O=C(O)c1[nH]c2ccc(S(=O)(=O)N(CCc3ccccc3)c3ccccc3N3CCN(C(=O)c4sccc4Br)CC3)cc2c1Cl` [Example F27-S161, 5-(N-(2-(4-(3-bromothiophene-2-carbonyl)piperazin-1-yl)phenyl)-N-phenethylsulfamoyl)-3-chloro-1H-indole-2-carboxylic acid]: 0.1 to 10 µM. For `O=C(O)c1cc2cc(S(=O)(=O)N(CCc3ccccc3)c3ccccc3N3CCN(C(=O)c4sccc4Br)CC3)ccc2o1` [Example F27-S162, 5-(N-(2-(4-(3-bromothiophene-2-formyl)piperazin-1-yl)phenyl)-N-phenethylsulfamoyl)benzofuran-2-carboxylic acid], the IC50 lay in the range of 0.1 to 10 µM.

Turning to `Cc1c(C(=O)O)oc2cc(S(=O)(=O)N(CCc3ccccc3)c3ccccc3N3CCN(C(=O)c4sccc4Br)CC3)ccc12` [Example F27-S163, 6-(N-(2-(4-(3-bromothiophene-2-formyl)piperazin-1-yl)phenyl)-N-phenethylsulfamoyl)3-methylbenzofuran-2-carboxylic acid], the IC50 is 0.1 to 10 µM. For `O=C(O)c1cc2ccc(S(=O)(=O)N(CCc3ccccc3)c3ccccc3N3CCN(C(=O)c4sccc4Br)CC3)cc2o1` [Example F27-S164, 6-(N-(2-(4-(3-bromothiophene-2-formyl)piperazin-1-yl)phenyl)-N-phenethylsulfamoyl)benzofuran-2-carboxylic acid], the IC50 lay in the range of 0.1 to 10 µM. For the compound `COc1ccc(CCN(c2ccccc2N2CCN(C(=O)c3sccc3Br)CC2)S(=O)(=O)c2ccc3sc(C(=O)O)c(C)c3c2)cc1` [Example F27-S165, 5-(N-(2-(4-(3-bromothiophene-2-formyl)piperazin-1-yl)phenyl)-N-(4-methoxyphenethyl)sulfamoyl)3-methylbenzothiophene-2-carboxylic acid], the IC50 is 0.1 to 10 µM. Under `Cc1c(C(=O)O)sc2ccc(S(=O)(=O)N(CCc3ccc(Cl)cc3)c3ccccc3N3CCN(C(=O)c4sccc4Br)CC3)cc12` [Example F27-S166, 5-(N-(2-(4-(3-bromothiophene-2-carbonyl)piperazin-1-yl)phenyl)-N-(4-chlorophenylethyl)sulfamoyl)-3-methylbenzothiophene-2-carboxylic] stands 0.1 to 10 µM.

In turn, `Cc1ccc(CCN(c2ccccc2N2CCN(C(=O)c3sccc3Br)CC2)S(=O)(=O)c2ccc3sc(C(=O)O)c(C)c3c2)cc1` [Example F27-S167, 5-(N-(2-(4-(3-bromothiophene-2-carbonyl)piperazin-1-yl)phenyl)-N-(4-methylphenylethyl)sulfamoyl)-3-methylbenzothiophene-2-carboxylic acid] had an IC50 of 0.1 to 10 µM. Under `Cc1c(C(=O)O)sc2ccc(S(=O)(=O)N(CCc3ccc(C(=O)O)cc3)c3ccccc3N3CCN(C(=O)c4sccc4Br)CC3)cc12` [Example F27-S168, 5-(N-(2-(4-(3-bromothiophene-2-carbonyl)piperazin-1-yl)phenyl)-N-(4-carboxyphenethyl)sulfamoyl)-3-toluenothiophene-2-carboxylic acid] stands 0.1 to 10 µM; under `Cc1c(C(=O)O)sc2ccc(S(=O)(=O)N(CCc3ccc(C#N)cc3)c3ccccc3N3CCN(C(=O)c4sccc4Br)CC3)cc12` [Example F27-S169], 0.1 to 10 µM; under `Cc1c(C(=O)O)sc2ccc(S(=O)(=O)N(CCc3ccc(C(F)(F)F)cc3)c3ccccc3N3CCN(C(=O)c4sccc4Br)CC3)cc12` [Example F27-S170, 5-(N-(2-(4-(3-bromothiophene-2-carbonyl)piperazin-1-yl)phenyl)-N-(4-(trifluoromethyl)phenethyl)sulfamoyl)-3-methylbenzothiophene-2-carboxylic acid], 0.1 to 10 µM. Under `Cc1c(C(=O)O)sc2ccc(S(=O)(=O)N(CCc3cccc(Cl)c3)c3ccccc3N3CCN(C(=O)c4sccc4Br)CC3)cc12` [Example F27-S172, 5-(N-(2-(4-(3-bromothiophene-2-carbonyl)piperazin-1-yl)phenyl)-N-(3-chlorophenethyl)sulfamoyl)-3-methylbenzothiophene-2-carboxylic acid] stands 0.1 to 10 µM; under `Cc1c(C(=O)O)sc2ccc(S(=O)(=O)N(CCc3ccccc3Cl)c3ccccc3N3CCN(C(=O)c4sccc4Br)CC3)cc12` [Example F27-S173, 5-(N-(2-(4-(3-bromothiophene-2-carbonyl)piperazin-1-yl)phenyl)-N-(2-chlorophenethyl)sulfamoyl)-3-methylbenzothiophene-2-carboxylic acid], 0.1 to 10 µM.

The compound `COc1ccccc1CCN(c1ccccc1N1CCN(C(=O)c2sccc2Br)CC1)S(=O)(=O)c1ccc2sc(C(=O)O)c(C)c2c1` [Example F27-S174, 5-(N-(2-(4-(3-bromothiophene-2-carbonyl)piperazin-1-yl)phenyl)-N-(2-methoxyphenethyl)sulfamoyl)-3-methylbenzothiophene-2-carboxylic acid] displayed an IC50 of 0.1 to 10 µM. `Cc1c(C(=O)O)sc2ccc(S(=O)(=O)N(CCc3ccccc3[N+](=O)[O-])c3ccccc3N3CCN(C(=O)c4sccc4Br)CC3)cc12` [Example F27-S175, 5-(N-(2-(4-(3-bromothiophene-2-carbonyl)piperazin-1-yl)phenyl)-N-(2-nitrophenylethyl)sulfamoyl)-3-toluothiophene-2-carboxylic acid] came in with an IC50 of 0.1 to 10 µM.

In the case of `Cc1c(C(=O)O)sc2ccc(S(=O)(=O)N(CCCc3ccccc3)c3ccccc3N3CCN(C(=O)c4sccc4Br)CC3)cc12` [Example F27-S176, 5-(N-(2-(4-(3-bromothiophene-2-carbonyl)piperazin-1-yl)phenyl)-N-(3-phenylpropyl)sulfamoyl)-3-methylbenzothiophene-2-carboxylic acid], the IC50 fell in the range of 0.1 to 10 µM. Under `Cc1c(C(=O)O)sc2ccc(S(=O)(=O)Nc3ccccc3N3CCN(C(=O)c4sccc4Br)CC3)cc12` [Example F27-S177, 5-(N-(2-(4-(3-bromothiophene-2-carbonyl)piperazin-1-yl)phenyl)sulfamoyl)-3-toluothiophene-2-carboxylic acid] stands 0.1 to 10 µM; under `Cc1c(C(N)=O)oc2ccc(S(=O)(=O)N(CCc3ccccc3)c3ccccc3N3CCN(C(=O)c4sccc4Br)CC3)cc12` [Example F27-S178, 5-(N-(2-(4-(3-bromothiophene-2-formyl)piperazin-1-yl)phenyl)-N-phenethylsulfamoyl)3-methylbenzofuran-2-carboxamide], 0.1 to 10 µM; under `Cc1c(C(=O)O)n(C)c2ccc(S(=O)(=O)N(CCc3ccccc3)c3ccccc3N3CCN(C(=O)c4sccc4Br)CC3)cc12` [Example F27-S179, 5-(N-(2-(4-(3-bromothiophene-2-carbonyl)piperazin-1-yl)phenyl)-N-phenethylsulfamoyl)-1,3-dimethyl-1H-indole-2-carboxylic acid], 0.1 to 10 µM. Under `Cc1c(C(=O)O)sc2ccc(S(=O)(=O)N(CCC3CCCCC3)c3ccccc3N3CCN(C(=O)c4sccc4Br)CC3)cc12` [Example F27-S180, 5-(N-(2-(4-(3-bromothiophene-2-carbonyl)piperazin-1-yl)phenyl)-N-(2-cyclohexylethyl)sulfamoyl)-3-methylbenzothiophene-2-carboxylic acid] stands 0.1 to 10 µM. Under `Cc1c(C(=O)O)sc2ccc(S(=O)(=O)N(Cc3ccccc3)c3ccccc3N3CCN(C(=O)c4sccc4Br)CC3)cc12` [Example F27-S181, 5-(N-benzyl-N-(2-(4-(3-bromothiophene-2-carbonyl)piperazin-1-yl)phenyl)sulfamoyl)-3-methylbenzothiophene-2-carboxylic acid] stands 0.1 to 10 µM; under `Cc1c(C(=O)O)sc2ccc(S(=O)(=O)N(C)c3ccccc3N3CCN(C(=O)c4sccc4Br)CC3)cc12` [Example F27-S182, 5-(N-(2-(4-(3-bromothiophene-2-carbonyl)piperazin-1-yl)phenyl)-N-methylsulfamoyl)-3-methylbenzothiophene-2-carboxylic acid], 0.1 to 10 µM; under `Cc1c(C(=O)O)sc2ccc(S(=O)(=O)N(CCc3cccs3)c3ccccc3N3CCN(C(=O)c4sccc4Br)CC3)cc12` [Example F27-S183, 5-(N-(2-(4-(3-bromothiophene-2-carbonyl)piperazin-1-yl)phenyl)-N-(2-(thiophen-2-yl)ethyl)sulfamoyl)-3-methylbenzothiophene-2-carboxylic acid], 0.1 to 10 µM. `Cc1c(CO)oc2ccc(S(=O)(=O)N(CCc3ccccc3)c3ccccc3N3CCN(C(=O)c4sccc4Br)CC3)cc12` [Example F27-S184, N-(2-(4-(3-bromothiophene-2-formyl)piperazin-1-yl)phenyl)-2-hydroxymethyl-3-methyl-N-phenethylbenzofuran-5-sulfonamide] displayed an IC50 of 0.1 to 10 µM.

As a reminder, the IC50 is the concentration that gives 50% inhibition.
